The record followed here is patent US20260200975A1, “PEPTIDE FOR CARTILAGE REGENERATION, AND USES THEREOF” (CAREGEN CO., LTD., priority 2022, published 2026).

The data set deals with human-derived chondrocytes (C28/12, human chondrocyte cell line). The data set is described as follows: Cytotoxicity by CCK-8 assay. It is filed as cell-based. To be noted: C28/12 cells, different concentrations, 3 days, absorbance 450 nm. On the procedure: The cytotoxicity of Peptide-1 or Peptide-2 upon addition to human-derived chondrocytes (C28/12, human chondrocyte cell line) was analyzed using a CCK-8 assay.
Specifically, human-derived chondrocytes were seeded in a 96-well plate at a density of 3×10^3 cells/well and cultured in DMEM medium (cat. 11995-065, Gibco) for 24 hours. […] Meanwhile, as a positive control group, one to which TGFβ1 (20 ng/ml) was added was used.
For orientation: Tetrazolium assays rely on reduction of a dye to a coloured formazan, in cell work by metabolically active cells.

Peptide text beside a SMILES is read from it.

In the case of `N[C@@H](CCC(=O)O)C(=O)N[C@@H](Cc1ccc(O)cc1)C(=O)N[C@@H](Cc1ccccc1)C(=O)N[C@@H](Cc1c[nH]c2ccccc12)C(=O)O` [Peptide-1, Glu(E)-Tyr(Y)-Phe(F)-Trp(W)] (H-EYFW-OH), the “toxicity in human-derived chondrocytes (CCK-8 activity)” value is “did not exhibit toxicity”.

`CC(C)C[C@H](NC(=O)[C@@H](NC(=O)[C@@H](N)CCCNC(=N)N)[C@@H](C)O)C(=O)O` [Peptide-2, Arg(R)-Thr(T)-Leu(L)] (H-Arg-Thr-Leu-OH): the “toxicity in human-derived chondrocytes (CCK-8 activity)” value is on record as “did not exhibit toxicity”.
